Source: US20210275511A1, “METHYLPHENIDATE COMPOSITIONS FOR TREATMENT OF ATTENTION DEFICIT HYPERACTIVITY DISORDER” (Ironshore Pharmaceuticals & Development, Inc., priority 2019, published 2021)

Test system: SKAMP scores in children aged 6-12 with attention deficit hyperactivity disorder (ADHD)
Experiment: Population PK/PD model of SKAMP scores (Study HLD200-107, laboratory classroom)
Format: in vivo, human
Details: FIG. 37
Excerpt: PD data. The clinical data used in this analysis were the SKAMP scores collected in a Phase 3 (HLD200-107 study), multicenter, open-label treatment-optimized, double-blind, randomized, placebo-controlled, forced-withdrawal, parallel group study to evaluate the safety and efficacy of evening dosed HLD200, a novel delayed and extended release formulation (DELEXIS) of methylphenidate hydrochloride, in children aged 6-12 with attention deficit hyperactivity disorder (ADHD) in a laboratory classroom setting.
PK/PD model development. In this study, no MPH samples were collected. Therefore the individual exposure, used in the PK/PD analysis were estimated based on the outcomes of population PK model and on the individual demographic (weight and gender) covariate values.
The model included a parametric description of the trajectories of SKAMP scores for placebo and HLD200 treatments. […]
Examples 10 to 15 relate to PK/PD analysis results. […] In the first step, the individual MPH concentrations were derived using the population PK model previously developed jointly with the individual demographic data and the individual HLD200 dosing history, then the placebo data were modelled, and finally the SKAMP scores were analyzed by fixing the placebo and the PK exposure values previously estimated. […]

Question: For COC(=O)C(c1ccccc1)C1CCCCN1 (stereo not shown) [MPH, methylphenidate], which “Drug concentration required to induce a change from placebo of ~40%” value is on record?
Answer: ~15 ng/mL
